From a melting point compilation (Tetko et al.; mined from patent text by program, amines drawn as free bases though some values may be those of a salt)

Structure (SMILES)	melting point [°C]
COc1ccc(NC(=O)Nc2ccc(Cl)c(Cl)c2)cc1NC(=S)Nc1cc(C(F)(F)F)cc(C(F)(F)F)c1	181
COC(=O)C1=C(C)NC(=S)N(C(=O)OC)C1c1cccc([N+](=O)[O-])c1 (stereo not given)	172 to 173
Cc1cc(-n2ccnc2)c2cccc(OCc3c(Cl)ccc(S(=O)(=O)N4CCC[C@H]4C(=O)N(C)CCCN(C)C)c3Cl)c2n1	80
COc1ccc2c(c1)c(CC(=O)O)c(C)n2CC1CCCCC1	173 to 175
NC1=NN(c2ccccc2)C(c2ccccc2)C1 (stereo not given)	195 to 197
O=C(O)CCSc1ccccc1CNC(=O)C1Cc2ccccc2N1S(=O)(=O)c1ccc(-c2cccc(C(F)(F)F)c2)cc1 (stereo not given)	85 to 89
O=C(O)c1cc(OCc2ccccc2)c(Cc2ccccc2)c(S(=O)(=O)Cl)c1	164 to 166
CN(C)C=NS(=O)(=O)c1cc(CCNC(=O)C(F)(F)F)ccc1OCc1ccccc1	103
CC(=NO)c1ccc(C(F)(F)C(F)(F)c2ccccc2)cc1	137 to 139
CC(C)(C)N1CC(=O)Nc2ccc(C#C[Si](C)(C)C)cc2C1=O	243 to 244
COc1ccc(CN2C(=O)[C@H](N3C(=O)c4ccccc4C3=O)[C@@H]2C(=O)OCc2ccccc2)c(OC)c1 (relative stereo)	198 to 200
COC(=O)CC(=O)c1cc(F)c(Cl)cc1Cl	77 to 79
Cc1noc(C)c1-c1cccc2c1C1(COc3cc4c(cc31)OCCO4)C(=O)N2C (stereo not given)	228 to 230
Cc1ccc(NC2=C(Cl)C(=O)c3ccccc3C2=O)nc1	260 to 261
CCCc1cc2cc(O)c(F)cc2c(Oc2ccc(/C=C/C(N)=O)cc2)c1-c1ccccc1	121 to 124
C=CCc1c(OC(C)=O)cc(C)c2c(C)cc(=O)oc12	166
O=C(O)Cc1cccc(-c2onc3ccccc23)c1	143 to 145
COc1cc(COc2nn(-c3ccccc3)cc2/C=C\c2csc(C)n2)ccc1OCc1nc(-c2ccco2)oc1C	111 to 112
Cc1c(NC(=O)c2ccc(-c3ccc4c(c3)CCCCO4)cc2)ccc2cc(CN3CCCC3)cnc12	162 to 163
Cc1ccc(-c2ccc(C(=O)Nc3ccc4cc(CN5CCCCCC5)cnc4c3)cc2)cc1	209

Structure (SMILES)	melting point [°C]
CC(=O)NCc1ccc(CC[N+]2([O-])CCC(C3CCc4ccccc43)CC2)cc1 (stereo not given)	130 to 131
CNC(=O)N(O)Cc1ccc(Br)cc1	165 to 167
CNC(=O)c1cc(-c2ccc(S(C)=O)cc2)c(-c2ccc(F)cc2)s1 (stereo not given)	218 to 220
Cc1ccc2c(c1)NC(=S)C2=O	246
CCOc1ccc2c(c1)C(=O)OC2C(Cl)(Cl)Cl (stereo not given)	112 to 114
Nc1nc(NCC(O)CO)c2ncn(C3C=CC(CO)C3)c2n1 (stereo not given)	119 to 121
CSc1nc(-c2ccc(Cl)cc2)nc(-c2ccccn2)n1	152
COc1cc(OC)nc(CCl)n1	40 to 42
Cc1oc(COc2ccc(/C=C/C=O)cc2)nc1-c1ccccc1	144 to 146
COc1ccc2c(c1)c(CC(=O)O)c(C)n2-c1nc(SC)nc2ccccc12	175 to 178
Cc1ccccc1C(=O)Nc1ccc(C(=O)N2CCCC(N(C)C)c3ccccc32)c(C)c1 (stereo not given)	183 to 185
CC(C)(CO)NC(=O)c1nn(-c2ccc(Br)cc2)c2c1C1CCC2C1 (stereo not given)	184 to 186
CCCCCCCCCCCCCCCCCCOc1cc(OCCCOc2ccccc2)cc(C(=O)O)c1	79 to 81
COc1cc(C(=O)NS(=O)(=O)Cc2ccccc2C(F)(F)F)nc(C)n1	120 to 122
O=C(COc1ccc(O)cc1)N1CCN(CC(O)Cn2c3ccccc3c3ccccc32)CC1 (stereo not given)	155
CC(=O)Nc1nccc2cc3cccnc3n12	160 to 161
CCOC(=O)CN(C)C1CCCN(C(=O)c2ccc(NC(=O)c3ccccc3C)cc2)c2ccccc21 (stereo not given)	167 to 168
COC(=O)c1ncn2c1CN(C)C(=O)c1cc(F)ccc1-2	195 to 196
CCc1nn(Cc2cccnn2)c(C(N)=O)c1N	171 to 174
O=CNCc1ccc2[nH]cc(CCNC(=O)OCc3ccccc3)c2c1	114 to 116

Structure (SMILES)	melting point [°C]
Nc1c(Cl)cc(C(=O)NC2CCN(CC3CCCO3)CC2)c2c1CCO2 (stereo not given)	175
CC(=O)C1CC2=C(CO1)C(=O)c1ccccc1C2=O (stereo not given)	135 to 136
CCCn1nc(-c2cnc3[nH]cc(C(=O)N[C@H](C)C(=O)N4CC(C#N)C4)c3n2)c2ccc(Cl)cc21	219 to 221
COc1cc(C(=O)c2ccc(Cl)cc2)cc([N+](=O)[O-])c1O	128 to 131
CC(C)(C)OC(=O)NC(C)(C)c1ccc(-c2nc(Nc3ccc(CCn4ccnc4)cc3)ncc2C#N)cc1	124
COc1ccccc1CCNC(=O)c1ccc2c(c1)C=CC(C)(C)O2	125 to 130
O=c1c(Cl)c(OCc2ccc(Cl)cc2)cnn1-c1ccc(Cl)cn1	167 to 169
O=c1[nH]c(=O)n(C2CC(OCc3cccc4ccccc34)C(CO)O2)cc1F (stereo not given)	159 to 160
O=[N+]([O-])CS(=O)(=O)c1ccc(O)cc1	93 to 95
O=C(O)Cc1ccc2c(c1)Cc1cccnc1O2	218
C#Cc1cnc(OCCC)c(-c2nc3c(CC)nn(CCN4CCOCC4)c3c(=O)[nH]2)c1	137 to 139
O=C(C=C(c1ccccc1)c1ccccc1)Nc1ccc(C(=O)O)cc1	222 to 224
CN(C(=S)Nc1ccccc1)C1CCN(CCc2c[nH]c3ccccc23)CC1	194
CCN(c1ccc(OC)cc1)c1cc(NC)nc(C)n1	116 to 118
Cc1sc(C(N)=O)c2c1-c1nn(C)cc1CC2	276 to 277
CCOC(=O)c1c(C)nc(C)n1Cc1ccc2oc(-c3ccccc3-c3nnn(C(c4ccccc4)(c4ccccc4)c4ccccc4)n3)c(Br)c2c1	98 to 100
Cn1c2cc[nH]c(=O)c2c2cccc(F)c21	294 to 296
COC(COC1CC2C3CCC4=CC(=O)CCC4(C)C3(F)C(O)CC2(C)C1(O)C(=O)CO)OC (stereo not given)	192 to 194
CCC12CCC3C(=CCC4(C)C(O)CCC34)C1(C)CCC(O)C2 (stereo not given)	165
O=C1NCCCC1Cc1ccccc1 (stereo not given)	120 to 123

Now from value to compound:

melting point [°C]	Structure (SMILES)
145 to 146	O=C(O)[C@@H]1CCCN1C(=O)C1CCC1S (stereo not given in full)
65.7 to 66.8	CN1CCN(c2ncccc2C#N)C(c2ccccc2)C1 (stereo not given)
280 to 281	O=c1[nH]c2cc(Br)ccc2c(=O)o1
223 to 225	CON1CCC2(CC1)C(O)=C(c1c(C)cc(C)cc1C)C(=O)N2CC1CC1
110 to 112	Cc1ccc2c(c1)c(-c1ccc(F)cc1)c(C)n2C1CCN(C)CC1
194 to 196	CCOC(=O)c1c(CN(C)c2ccccc2)nc2cc(OC)c(OC)cc2c1-c1ccc(OC)c(OC)c1
150 to 151	COc1c(N2CC(OC)C(C)(N)C2)c(F)cc2c(=O)c(C(=O)O)cn([C@@H]3C[C@@H]3F)c12 (stereo not given in full)
96 to 97	CN(Cc1cc(C(F)(F)F)cc(C(F)(F)F)c1)C(=O)c1cnc2ccccc2c1-c1ccccc1
310 to 313	O=C(NCc1ccc(Cl)cc1)c1cnc2c(F)cc(O)cc2c1O
112 to 118	CC(C)c1ccc(NC(=N)c2cccc(NC(=O)C=Cc3ccccc3Cl)c2)cc1
200	CS(=O)(=O)c1cc(C(=O)O)c(Cl)cc1Oc1ccccc1
60	CCN(CC)C(=O)COc1nc(C(F)(F)F)ns1
93 to 95	CCOC(=O)Cn1c(-c2ccccc2)nc2cccnc21
306 to 308	CC(=O)c1cn(-c2cc(C)c3[nH]c(=O)ccc3c2)c(C)n1
138 to 140	C#CCc1c(C)nc2c(OCc3ccccc3C)cccn12
262 to 268	O=C(/C=C/c1c[nH]c2ccc(O)cc12)c1ccncc1
168 to 170	COc1ccc(S(=O)(=O)Nc2ccccc2NC(=O)c2ccccc2[N+](=O)[O-])cc1
203	N#CCc1ccc(-c2nc3ccccc3o2)cc1[N+](=O)[O-]
67 to 69	O=C1CCCCC1c1cncc(Br)c1 (stereo not given)
110 to 111	COCC1CC(c2ccc3ccccc3c2C#N)=NO1 (stereo not given)

melting point [°C]	Structure (SMILES)
70 to 71	Cc1cccc(CN2CCCN(C)C(=O)[C@H]2NC(=O)OCc2ccccc2)c1
44 to 45	Cc1sc(C=O)c(C)c1Br
92 to 94	COc1ccc(CCC(=O)NCc2ccccc2)cc1
206 to 208	CN1CCC(C2(O)c3ccccc3Oc3ccc(Cl)cc32)CC1 (stereo not given)
145 to 146	Cc1sc(C)c(Cc2nc3c(F)c(F)cc(F)c3s2)c1CC#N
81 to 83	COc1ccc(C(C)c2cc(O)ccc2OC)cc1 (stereo not given)
153 to 154	O=C1N(CC2CCCCC2)c2ccccc2C12COc1cc3c(cc12)OCO3 (stereo not given)
163 to 168	CCN(CC)C1CCN(c2cccc(-c3cnn4c(N)c(-c5cccc(Cl)c5)c(C)nc34)c2)CC1
145 to 148	O=C(O)C1CCC2CCC(=O)N21 (stereo not given)
157 to 158	CCCCn1ncc2c1nc(N)n1nc(-c3ccco3)nc21
50 to 52	CCCc1c(OCC(=N)OCC)ccc(C(C)=O)c1O
166	COC1CN=C(N2CCN(c3ccc(O)cc3)CC2)S1 (stereo not given)
220	Cc1cc(-c2cnn3c(C(F)(F)F)cc(-c4ccc(Cl)cc4)nc23)ccn1
145	CC(C)NC(=O)CC(CC1(C(=O)N[C@H]2CCc3ccccc3N(CC(=O)O)C2=O)CCCC1)C(=O)O (stereo not given in full)
233 to 234	Cc1cc(Br)cnc1CCCCNC1=NS(=O)(=O)c2cc(-c3ccccn3)ccc21
145 to 146	O=[N+]([O-])C=C(NCCO)NCCO
147 to 148	CC(=O)Nc1c(Cl)cnn(C)c1=O
102 to 104	Nc1cn(C2OC(CO)C(O)C2O)nn1 (stereo not given)
185 to 188	CC(C)(C#N)c1cc(C(C)(C)C#N)cc(C(C)(C)n2cncn2)c1
97 to 98	O=C(OCc1ccccc1)c1cc(-c2ccc(-c3ccc(C(F)(F)F)cc3)o2)ccc1OCc1ccccc1
